These results are taken from patent US4495188A, “Acylaminoquinazoline derivatives and a pharmaceutical composition containing them” (Sankyo Company Limited, priority 1980, dated 1985).

pIC50: −log10 of the molar value. Structures can show the parent of a compound that is named as a salt. Where two headings read alike, the source gives them in different places.

Test [1] deals with T1, angiotension I-converting enzyme (ACE) (Oryctolagus cuniculus, UniProt P12822).
T1 construct: The ACE solution was prepared by homogenizing 5 g of acetone powders of rabbit lungs; tissue Sigma Chemical Co; host or cells: rabbit lung (acetone powder, borate buffer extract, 40,000 G supernatant)
T1 sequence (P12822 34-1310): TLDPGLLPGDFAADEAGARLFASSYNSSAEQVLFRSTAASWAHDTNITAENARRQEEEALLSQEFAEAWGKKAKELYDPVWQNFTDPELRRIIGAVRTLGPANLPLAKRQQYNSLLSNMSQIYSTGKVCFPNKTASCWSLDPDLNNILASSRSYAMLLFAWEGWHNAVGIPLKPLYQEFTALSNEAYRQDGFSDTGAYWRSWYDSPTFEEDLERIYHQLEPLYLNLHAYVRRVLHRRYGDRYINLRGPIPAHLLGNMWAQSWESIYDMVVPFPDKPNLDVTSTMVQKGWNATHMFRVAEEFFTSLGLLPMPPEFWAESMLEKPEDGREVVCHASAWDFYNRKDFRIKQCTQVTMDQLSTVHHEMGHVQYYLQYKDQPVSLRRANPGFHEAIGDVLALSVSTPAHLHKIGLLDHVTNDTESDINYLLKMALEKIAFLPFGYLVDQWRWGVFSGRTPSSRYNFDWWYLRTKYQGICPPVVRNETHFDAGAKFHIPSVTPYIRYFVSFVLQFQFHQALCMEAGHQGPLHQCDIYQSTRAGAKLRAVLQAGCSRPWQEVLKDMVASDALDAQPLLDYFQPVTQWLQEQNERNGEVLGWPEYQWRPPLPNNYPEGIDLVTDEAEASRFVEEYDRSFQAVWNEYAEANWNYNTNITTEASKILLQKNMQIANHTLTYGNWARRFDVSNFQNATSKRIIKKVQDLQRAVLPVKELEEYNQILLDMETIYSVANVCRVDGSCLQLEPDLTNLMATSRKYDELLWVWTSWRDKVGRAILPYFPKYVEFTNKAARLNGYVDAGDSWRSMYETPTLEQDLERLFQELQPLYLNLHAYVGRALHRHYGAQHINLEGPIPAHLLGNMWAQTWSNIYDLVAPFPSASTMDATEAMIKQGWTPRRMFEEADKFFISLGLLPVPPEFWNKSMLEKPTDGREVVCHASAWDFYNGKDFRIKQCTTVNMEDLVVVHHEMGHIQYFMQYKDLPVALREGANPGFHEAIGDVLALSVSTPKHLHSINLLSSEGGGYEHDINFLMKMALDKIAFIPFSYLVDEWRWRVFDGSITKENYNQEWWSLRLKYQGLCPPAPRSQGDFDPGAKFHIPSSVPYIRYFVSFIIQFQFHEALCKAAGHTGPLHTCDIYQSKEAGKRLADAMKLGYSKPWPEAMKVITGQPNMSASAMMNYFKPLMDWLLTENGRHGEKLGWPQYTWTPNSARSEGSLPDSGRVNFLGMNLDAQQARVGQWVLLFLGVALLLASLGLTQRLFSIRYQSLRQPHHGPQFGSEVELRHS
Put plainly: Measurement of inhibitory activity against the angiotension I-converting enzyme (ACE), hippuryl-l-histidyl-l-leucine as substrate. It is filed as biochemical, rabbit. Here is the method:
The inhibitory activities of compounds of the invention and of the known compound, prazosin, against the angiotension I-converting enzyme (ACE) were measured by the method of D. W. Cushman and H. S. Cheung [Biochem. Pharmacol. 20, 637 (1971)], using hippuryl-l-histidyl-l-leucine as a substrate. The reaction mixture consisted of 225 μl of a 0.1 M borate buffer solution (pH 8.3) containing 0.4 M sodium chloride, 25 μl of the substrate (12.5 mM solution), 25 μl of a partially purified ACE and 25 μl of a test compound solution (prepared from a 1 mg/ml aqueous acetone solution of the compound). This reaction mixture was maintained at 37° C. for 30 minutes, after which 300 μl of 1N hydrochloric acid were added in order to stop the reaction. 2 ml of ehtyl acetate were then added and the mixture was stirred for 10 seconds and then centrifuged at 3,000 rpm for 5 minutes. 1.5 ml of the ethyl acetate layer was separated and concentrated by evaporation to dryness. The residue was dissolved in 1 ml of distilled water and the quantity of hippuric acid in this solution was measured from its absorbance at 228 mμ, using a spectrophotometer.
The ACE solution was prepared by homogenizing 5 g of acetone powders of rabbit lungs (a product of Sigma Chemical Co., U.S.A., prepared by homogenizing rabbit lungs in a buffer solution and separating out the enzymes precipitated with acetone) in 50 ml of a borate buffer solution (pH 8.3), centrifuging the mixture at 40,000 G for 30 minutes and then separating the supernatant.
The inhibitory activity against ACE was calculated from the formula: [formula] in which Ac is the absorbance of the control and As is the absorbance of the sample. Inhibition curves were made for each sample by measuring the inhibitory activity at five different concentrations, prepared by two-fold dilutions. The IC50 values, which are the molar concentrations of the compounds required to inhibit the ACE activity by 50%, were calculated for each compound.

For a further test, the system named is hypertensive animals. Particulars: reported by Cushman et al.; cited from earlier work.
The subject of test [2] is angiotensin I-converting enzyme. The settings on record: reported by Cushman et al.; cited from earlier work.
Setting [3] is: pH 8.3, 37° C., 30 minutes, partially purified ACE from rabbit lungs, read-out: Inhibitory concentration IC50.

As to `CCOC(=O)N1CCN(c2nc(NC(=O)C3CSCN3C(=O)C(C)CSC(C)=O)c3cc(OC)c(OC)cc3n2)CC1` (racemic) [Example 6, 4-[3-(DL-3-Acetylthio-2-methylpropanoyl)thiazolidine-4-carbonyl]amino-2-(4-ethoxycarbonyl-1-piperazinyl)-6,7-dimethoxyquinazoline hydrochloride hemihydrate], in test [1] (setting [3]), the pIC50 was 5.85.
Consider `C[C@H](CS)C(=O)N1CCC[C@H]1C(=O)O` [1-(D-3-mercapto-2-methylpropanoyl)-L-proline], for which the antihypertensive activity result in the test on hypertensive animals was “exhibits antihypertensive activity”. Also, the “inhibitory activity against the angiotensin I-converting enzyme” value in test [2] is “potent inhibitory activity”.
With `CCOC(=O)N1CCN(c2nc(NC(=O)[C@@H]3CCCN3C(=O)[C@H](C)CSC(C)=O)c3cc(OC)c(OC)cc3n2)CC1` [Example 1, 4[1-(D-3-Acetylthio-2-methylpropanoyl)-L-prolyl]amino-2-(4-ethoxycarbonyl-1-piperazinyl)-6,7-dimethoxy-quinazoline hydrochloride hemihydrate], the pIC50 in test [1] (setting [3]) is 6.38.
Turning to `C/C=C/C(=O)N1CCN(c2nc(NC(=O)[C@@H]3CCCN3C(=O)[C@H](C)CSC(C)=O)c3cc(OC)c(OC)cc3n2)CC1` [Example 2, 4[1-(D-3-Acetylthio-2-methylpropanoyl)-L-prolyl]amino-2-(4-crotonoyl-1-piperazinyl)-6,7-dimethoxyquinazoline. hydrochloride hydrate], the pIC50 in test [1] (setting [3]) was 6.44.
Same read-out and setting: for `COc1cc2nc(N3CCN(C(=O)C(C)Oc4ccccc4)CC3)nc(NC(=O)[C@@H]3CCCN3C(=O)[C@H](C)CSC(C)=O)c2cc1OC` (stereo partly drawn) [Example 3, 4-[1-(D-3-Acetylthio-2-methylpropanoyl)-L-prolyl]amino-6,7-dimethoxy-2[4-(2-phenoxypropionyl)-1-piperazinyl]quinazoline hydrochloride hydrate] the value was 6.47; for `COc1cc2nc(N3CCN(C(=O)c4ccc(OCc5ccccc5)cc4)CC3)nc(NC(=O)[C@@H]3CCCN3C(=O)[C@H](C)CSC(C)=O)c2cc1OC` [Example 4, 4-[1-(D-3-Acetylthio-2-methylpropanoyl)-L-prolyl]amino-2-[4-(4-benzyloxybenzoyl)-1-piperazinyl]-6,7-dimethoxy-quinazcline hydrochloride sesquihydrate], 6.35.
`COc1ccc(C(=O)N2CCN(c3nc(NC(=O)[C@@H]4CCCN4C(=O)[C@H](C)CSC(C)=O)c4cc(OC)c(OC)cc4n3)CC2)cc1OC` [Example 5, 4-[1-(D-3-Acetylthio-2-methylpropanoyl)-L-prolyl]amino-2-(4-(3,4-dimethoxybenzoyl)-1-piperazinyl]-6,7-dimethoxy-quinazoline hydrochloride sesquihydrate]: the pIC50 in test [1] (setting [3]) was 6.58.
Same read-out and setting: next, `COc1cc2nc(N3CCN(C(=O)c4ccco4)CC3)nc(NC(=O)[C@@H]3CCCN3C(=O)[C@H](C)CSC(C)=O)c2cc1OC` [Example 7, 4-[1-(D-3-Acetylthio-2-methylpropanoyl)-L-prolyl]amino-2-[4-(2-furoyl)-1-piperazinyl]-6,7-dimethoxyquinazoline.hydrochloride.hydrate]: 6.51.
With `COc1cc2nc(N3CCN(C(=O)c4ccco4)CC3)nc(N)c2cc1OC` [prazosin, reference compound], the pIC50 in test [1] is ≤ 5.00.
